Like-named read-outs stand apart in the source and are kept apart here. Marks after values point to notes of the source that are not given here. *1 amine or outer side, *2 acyl side, *3 side chain or, on linkers, in order; H or OH if unused. Where a SMILES comes first, the peptide text is derived from it. Bridges are numbered along the chain shown (N, C = ends). Roman numbers before positions name the chains, in order. [ ]: non-standard residue; d: D form. Actinocin(9to1) = Cc1c2oc3c(C)ccc(C(=O)[*:1])c3nc-2c(C(=O)[*:2])c(N)c1=O; NMeV = CN[C@H](C(=O)O)C(C)C; Sar = CNCC(=O)O
Columns and labels:
[1] = test system: HepG2 cells
[2] = test system: HepG2 cells; remark: listed apart in the source
[3] = test system: HepG2 cells; remark: listed apart in the source
[4] = test system: CYP competent primary hepatocytes; details: cited from earlier work

Compound: Cc1c2ccccc2c(C)c2c1ccc1ccccc12 [DMBA, 7,12-dimethylbenz[a]anthracene]
- gene expression changes, single compound analysis vs vehicle controls ([1]; DMBA 10 μM w/o S9): extremely weak or no statistically significant
- CDKN1A gene regulation relative to vehicle/S9 control ([1]; DMBA 10 μM, +S9, 48 h): 3.18* fold
- CRABP2 gene regulation relative to vehicle/S9 control ([1]; DMBA 10 μM, +S9, 48 h): 2.31* fold
- EMP1 gene regulation relative to vehicle/S9 control ([1]; DMBA 10 μM, +S9, 48 h): 1.93* fold
- EMP3 gene regulation relative to vehicle/S9 control ([1]; DMBA 10 μM, +S9, 48 h): 2.61* fold
- IER5 gene regulation relative to vehicle/S9 control ([1]; DMBA 10 μM, +S9, 48 h): 1.83* fold
- LGALS7 gene regulation relative to vehicle/S9 control ([1]; DMBA 10 μM, +S9, 48 h): 1.93* fold
- PLAU gene regulation relative to vehicle/S9 control ([1]; DMBA 10 μM, +S9, 48 h): 2.13* fold
- PROCR gene regulation relative to vehicle/S9 control ([1]; DMBA 10 μM, +S9, 48 h): 2.26* fold
- CDKN1A gene regulation relative to vehicle/S9 control ([1]; DMBA 10 μM, without S9, 48 h): 1.36 fold
- CRABP2 gene regulation relative to vehicle/S9 control ([1]; DMBA 10 μM, without S9, 48 h): 1.10 fold
- EMP1 gene regulation relative to vehicle/S9 control ([1]; DMBA 10 μM, without S9, 48 h): 1.11 fold
- EMP3 gene regulation relative to vehicle/S9 control ([1]; DMBA 10 μM, without S9, 48 h): 1.18 fold
- IER5 gene regulation relative to vehicle/S9 control ([1]; DMBA 10 μM, without S9, 48 h): 1.30* fold
- LGALS7 gene regulation relative to vehicle/S9 control ([1]; DMBA 10 μM, without S9, 48 h): 1.25* fold
- PLAU gene regulation relative to vehicle/S9 control ([1]; DMBA 10 μM, without S9, 48 h): 1.29* fold
- PROCR gene regulation relative to vehicle/S9 control ([1]; DMBA 10 μM, without S9, 48 h): 1.18 fold
- regulation of the 91 genes ([1]; DMBA 75 μM w/o S9): relatively weak
- CDKN1A gene regulation relative to vehicle/S9 control ([1]; DMBA 75 μM, without S9, 48 h): 1.50* fold
- CRABP2 gene regulation relative to vehicle/S9 control ([1]; DMBA 75 μM, without S9, 48 h): 1.27 fold
- EMP1 gene regulation relative to vehicle/S9 control ([1]; DMBA 75 μM, without S9, 48 h): 1.31 fold
- EMP3 gene regulation relative to vehicle/S9 control ([1]; DMBA 75 μM, without S9, 48 h): 1.38* fold
- IER5 gene regulation relative to vehicle/S9 control ([1]; DMBA 75 μM, without S9, 48 h): 1.26* fold
- LGALS7 gene regulation relative to vehicle/S9 control ([1]; DMBA 75 μM, without S9, 48 h): 1.26 fold
- PLAU gene regulation relative to vehicle/S9 control ([1]; DMBA 75 μM, without S9, 48 h): 1.53* fold
- PROCR gene regulation relative to vehicle/S9 control ([1]; DMBA 75 μM, without S9, 48 h): 1.32* fold
- prediction using the 91 top-scored genes ([2]; 75 μM w/o S9): predicted correctly
- Categorization ([3]; 10 μM, 48 h, with S9): genotoxic
- Categorization ([3]; 75 μM, 48 h, without S9): genotoxic^#
- Categorization ([3]; DMBA 10 μM, 48 h, without S9): non-genotoxic

Compound: Cc1c2oc3c(C)ccc(C(=O)N[C@@H]4C(=O)N[C@H](C(C)C)C(=O)N5CCC[C@H]5C(=O)N(C)CC(=O)N(C)[C@@H](C(C)C)C(=O)O[C@@H]4C)c3nc-2c(C(=O)N[C@@H]2C(=O)N[C@H](C(C)C)C(=O)N3CCC[C@H]3C(=O)N(C)CC(=O)N(C)[C@@H](C(C)C)C(=O)O[C@@H]2C)c(N)c1=O [ACT, actinomycin D] (I: T[dV]P[Sar][NMeV] / II: T[dV]P[Sar][NMeV]; ester I:1-I:C, II:1-II:C; linker I:N-II:N via Actinocin(9to1))
- MYC gene regulation [1]: down-regulated
- RNA polymerase II gene regulation [1]: down-regulation
- topoisomerase II (TOPO2) gene regulation [1]: down-regulation
- CDKN1A gene regulation relative to vehicle/S9 control ([1]; ACT 250 nM, without S9, 48 h): −1.15 fold
- CRABP2 gene regulation relative to vehicle/S9 control ([1]; ACT 250 nM, without S9, 48 h): 2.82* fold
- EMP1 gene regulation relative to vehicle/S9 control ([1]; ACT 250 nM, without S9, 48 h): 1.91* fold
- EMP3 gene regulation relative to vehicle/S9 control ([1]; ACT 250 nM, without S9, 48 h): 5.68* fold
- IER5 gene regulation relative to vehicle/S9 control ([1]; ACT 250 nM, without S9, 48 h): 3.07* fold
- LGALS7 gene regulation relative to vehicle/S9 control ([1]; ACT 250 nM, without S9, 48 h): 1.69* fold
- PLAU gene regulation relative to vehicle/S9 control ([1]; ACT 250 nM, without S9, 48 h): 3.69* fold
- PROCR gene regulation relative to vehicle/S9 control ([1]; ACT 250 nM, without S9, 48 h): 2.58* fold
- Categorization ([3]; 250 nM, 24 h, without S9): genotoxic
- Categorization ([3]; 250 nM, 48 h, without S9): genotoxic

Compound: CCN(CC)N=O [DEN, N-nitrosodiethylamine]
- EGR1 gene regulation [1]: up-regulation
- number of down-regulated genes [1]: 57
- number of up-regulated genes [1]: 88
- CDKN1A gene regulation relative to vehicle/S9 control ([1]; DEN 25 mM, +S9, 48 h): 1.95* fold
- CRABP2 gene regulation relative to vehicle/S9 control ([1]; DEN 25 mM, +S9, 48 h): 2.09* fold
- EMP1 gene regulation relative to vehicle/S9 control ([1]; DEN 25 mM, +S9, 48 h): 1.84* fold
- EMP3 gene regulation relative to vehicle/S9 control ([1]; DEN 25 mM, +S9, 48 h): 2.26* fold
- IER5 gene regulation relative to vehicle/S9 control ([1]; DEN 25 mM, +S9, 48 h): 1.50* fold
- LGALS7 gene regulation relative to vehicle/S9 control ([1]; DEN 25 mM, +S9, 48 h): 1.77 fold
- PLAU gene regulation relative to vehicle/S9 control ([1]; DEN 25 mM, +S9, 48 h): 1.84 fold
- PROCR gene regulation relative to vehicle/S9 control ([1]; DEN 25 mM, +S9, 48 h): 1.76* fold
- CDKN1A gene regulation relative to vehicle/S9 control ([1]; DEN 25 mM, without S9, 48 h): −1.19 fold
- CRABP2 gene regulation relative to vehicle/S9 control ([1]; DEN 25 mM, without S9, 48 h): 1.54* fold
- EMP1 gene regulation relative to vehicle/S9 control ([1]; DEN 25 mM, without S9, 48 h): 1.61* fold
- EMP3 gene regulation relative to vehicle/S9 control ([1]; DEN 25 mM, without S9, 48 h): 1.04 fold
- IER5 gene regulation relative to vehicle/S9 control ([1]; DEN 25 mM, without S9, 48 h): 1.06 fold
- LGALS7 gene regulation relative to vehicle/S9 control ([1]; DEN 25 mM, without S9, 48 h): 1.11 fold
- PLAU gene regulation relative to vehicle/S9 control ([1]; DEN 25 mM, without S9, 48 h): 1.86* fold
- PROCR gene regulation relative to vehicle/S9 control ([1]; DEN 25 mM, without S9, 48 h): 1.30 fold
- CDKN1A gene regulation relative to vehicle/S9 control ([1]; DEN 50 mM, +S9, 48 h): 2.20* fold
- CRABP2 gene regulation relative to vehicle/S9 control ([1]; DEN 50 mM, +S9, 48 h): 1.80* fold
- EMP1 gene regulation relative to vehicle/S9 control ([1]; DEN 50 mM, +S9, 48 h): 2.09* fold
- EMP3 gene regulation relative to vehicle/S9 control ([1]; DEN 50 mM, +S9, 48 h): 2.03* fold
- IER5 gene regulation relative to vehicle/S9 control ([1]; DEN 50 mM, +S9, 48 h): 1.51 fold
- LGALS7 gene regulation relative to vehicle/S9 control ([1]; DEN 50 mM, +S9, 48 h): 1.97* fold
- PLAU gene regulation relative to vehicle/S9 control ([1]; DEN 50 mM, +S9, 48 h): 1.59* fold
- PROCR gene regulation relative to vehicle/S9 control ([1]; DEN 50 mM, +S9, 48 h): 1.63* fold
- CDKN1A gene regulation relative to vehicle/S9 control ([1]; DEN 50 mM, without S9, 48 h): −1.48* fold
- CRABP2 gene regulation relative to vehicle/S9 control ([1]; DEN 50 mM, without S9, 48 h): 1.40 fold
- EMP1 gene regulation relative to vehicle/S9 control ([1]; DEN 50 mM, without S9, 48 h): 1.37 fold
- EMP3 gene regulation relative to vehicle/S9 control ([1]; DEN 50 mM, without S9, 48 h): 1.02 fold
- IER5 gene regulation relative to vehicle/S9 control ([1]; DEN 50 mM, without S9, 48 h): 1.03 fold
- LGALS7 gene regulation relative to vehicle/S9 control ([1]; DEN 50 mM, without S9, 48 h): 1.23* fold
- PLAU gene regulation relative to vehicle/S9 control ([1]; DEN 50 mM, without S9, 48 h): 1.44 fold
- PROCR gene regulation relative to vehicle/S9 control ([1]; DEN 50 mM, without S9, 48 h): 1.20 fold
- classification by 91 gene-classifier ([2]; with S9 (MAS)): genotoxic
- classification by 91 gene-classifier ([2]; without S9): non-genotoxic
- concentrations giving a positive response [4]: 10000 to 32000 µM

Compound: COS(C)(=O)=O [MMS, methyl methanesulfonate]
- EGR1 gene regulation [1]: up-regulation
- MYC gene regulation [1]: down-regulated
- AP endonuclease 2 (APEX2) gene regulation ([1]; after 24 h and 48 h treatment): up-regulated
- β-polymerase (POLB) gene regulation ([1]; after 48 h exposure): up-regulated

Compound: aflatoxin B1 [AFB1]
- EGR1 gene regulation [1]: up-regulation
- gene expression changes, single compound analysis vs vehicle controls [1]: extremely weak or no statistically significant

Compound: O=P1(N(CCCl)CCCl)NCCCO1 (centres unmarked) [CPA, cyclophosphamide]
- EGR1 gene regulation [1]: up-regulation
- gene expression changes, single compound analysis vs vehicle controls [1]: extremely weak or no statistically significant

— patent US20130102493A1, “GENE EXPRESSION ANALYSES FOR CHARACTERIZING AND IDENTIFYING GENOTOXIC COMPOUNDS” (MERCK PATENT GESELLSCHAFT MIT BESCHRANKTER HAFTUNG, priority 2010, published 2013)
